The source of these data is US20040024024A1, “Aromatic sulfone hydroxamates and their use as protease inhibitors” (priority 2001, published 2004).

In data set [1] the target is T1, Human recombinant MMP-1 (Homo sapiens, UniProt P03956).
T1 construct: made in house; host or cells: MMP-1-transfected HT-1080 cells (spent media)
T1 sequence (P03956 100-469): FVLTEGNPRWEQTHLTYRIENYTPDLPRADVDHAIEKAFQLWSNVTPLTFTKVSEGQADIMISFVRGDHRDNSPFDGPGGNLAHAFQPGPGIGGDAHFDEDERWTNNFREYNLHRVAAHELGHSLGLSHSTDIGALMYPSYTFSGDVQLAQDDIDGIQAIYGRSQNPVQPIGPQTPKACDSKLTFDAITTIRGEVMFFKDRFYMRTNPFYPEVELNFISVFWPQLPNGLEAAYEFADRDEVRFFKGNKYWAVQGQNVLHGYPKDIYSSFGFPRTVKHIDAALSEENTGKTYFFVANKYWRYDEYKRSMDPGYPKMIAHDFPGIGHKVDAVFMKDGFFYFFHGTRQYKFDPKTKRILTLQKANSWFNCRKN
The experiment in a line: In vitro MMP inhibition, IC50 determination (fluorogenic substrate I). Particulars: value outside parentheses. The class given is biochemical. In short, it runs like this: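 Inhibitor dilutions were made in 100 mM Tris-HCl/100 mM NaCl/10 mM CaCl2 buffer, pH 7.5, and incubated at room temperature with activated proenzyme (from transfected HT-1080 media; APMA or trypsin) and 4 μM quenched methoxycoumarin peptide substrate. Loss of 415 nm fluorescence (328 nm excitation) against concentration gave IC50.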

The target in data set [2] is T2, Human recombinant MMP-2 (Homo sapiens, UniProt P08253).
T2 construct: made in house; host or cells: MMP-2-transfected p2AHT2 cells
T2 sequence (P08253 110-660): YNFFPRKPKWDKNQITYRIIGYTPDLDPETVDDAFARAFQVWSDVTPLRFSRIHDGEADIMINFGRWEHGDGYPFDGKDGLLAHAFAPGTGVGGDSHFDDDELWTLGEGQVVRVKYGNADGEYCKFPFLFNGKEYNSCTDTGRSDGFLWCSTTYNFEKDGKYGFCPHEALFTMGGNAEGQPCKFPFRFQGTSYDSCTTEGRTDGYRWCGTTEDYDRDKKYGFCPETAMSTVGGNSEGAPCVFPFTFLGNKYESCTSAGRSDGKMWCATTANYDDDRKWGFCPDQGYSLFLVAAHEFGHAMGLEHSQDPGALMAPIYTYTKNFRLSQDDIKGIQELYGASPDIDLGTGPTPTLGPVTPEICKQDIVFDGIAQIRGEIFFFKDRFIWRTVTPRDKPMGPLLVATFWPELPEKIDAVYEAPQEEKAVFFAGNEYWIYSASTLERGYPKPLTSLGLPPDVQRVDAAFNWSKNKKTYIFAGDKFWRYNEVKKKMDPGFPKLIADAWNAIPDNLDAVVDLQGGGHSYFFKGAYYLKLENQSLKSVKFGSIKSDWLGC
Described as above. Format: biochemical. Particulars: value outside parentheses. In short, it runs like this:
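IC50 was derived from the concentration-dependent fall in fluorescence (ex 328, em 415 nm) on Gly-Leu cleavage of 4 μM MCA/Dpa-quenched substrate I. Assays ran at room temperature in pH 7.5 Tris/NaCl/CaCl2/Brij buffer with MMP-2 activated by trypsin or APMA; inhibitors were diluted from 1% DMSO stocks.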

In data set [3] the target is T3, Human recombinant MMP-9 (Homo sapiens, UniProt P14780).
T3 construct: made in house; host or cells: MMP-9-transfected HT1080 cells (spent media)
The data set is described as above. The class given is biochemical. The conditions noted are these: value outside parentheses. In short, it runs like this: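 Reduction in fluorescence (328 nm excitation, 415 nm emission) from cleavage of 4 μM quenched peptide substrate I, measured at room temperature against inhibitor concentration, gave IC50. Enzyme: trypsin- or APMA-activated MMP-9 purified from transfected HT1080 medium; buffer 100 mM Tris, 100 mM NaCl, 10 mM CaCl2, pH 7.5.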

In data set [4] the target is T4, Human recombinant MMP-13 (Homo sapiens, UniProt P45452).
T4 construct: made in house; host or cells: baculovirus / insect cells
The data set is described as above. The class given is biochemical. The conditions noted are these: value outside parentheses. In short, it runs like this:
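Fluorescence at 415 nm (excitation 328 nm) reports Gly-Leu cleavage of 4 μM quenched methoxycoumarin peptide substrate I. Human recombinant MMP-13, activated by trypsin or APMA, was incubated at room temperature with varied inhibitor concentrations in pH 7.5 Tris/NaCl/CaCl2 buffer; IC50 derived from reduced fluorescence.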

Data set [5] addresses T5, Human recombinant MMP-14 (Homo sapiens, UniProt P50281).
T5 construct: The catalytic domain enzyme was expressed in E. coli inclusion bodies, solubilized in urea; made in house
The data set is described as above. Particulars: value outside parentheses. The class given is biochemical. In short, it runs like this:
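IC50 came from reduced fluorescence (ex 328 nm, em 415 nm) as inhibitor concentration rose, with 4 μM substrate I cleaved at Gly-Leu. Room-temperature incubation in pH 7.5 Tris buffer with 10 mM CaCl2; the E. coli-expressed, refolded MMP-14 catalytic domain was activated with trypsin or APMA.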

The subject of data set [6] is solid tumor cancers (colorectal, pancreatic, ovarian, and prostate). Particulars: cited from earlier work.

Molecules are shown by their SMILES.

T3 sequence (P14780 107-707 limits assumed): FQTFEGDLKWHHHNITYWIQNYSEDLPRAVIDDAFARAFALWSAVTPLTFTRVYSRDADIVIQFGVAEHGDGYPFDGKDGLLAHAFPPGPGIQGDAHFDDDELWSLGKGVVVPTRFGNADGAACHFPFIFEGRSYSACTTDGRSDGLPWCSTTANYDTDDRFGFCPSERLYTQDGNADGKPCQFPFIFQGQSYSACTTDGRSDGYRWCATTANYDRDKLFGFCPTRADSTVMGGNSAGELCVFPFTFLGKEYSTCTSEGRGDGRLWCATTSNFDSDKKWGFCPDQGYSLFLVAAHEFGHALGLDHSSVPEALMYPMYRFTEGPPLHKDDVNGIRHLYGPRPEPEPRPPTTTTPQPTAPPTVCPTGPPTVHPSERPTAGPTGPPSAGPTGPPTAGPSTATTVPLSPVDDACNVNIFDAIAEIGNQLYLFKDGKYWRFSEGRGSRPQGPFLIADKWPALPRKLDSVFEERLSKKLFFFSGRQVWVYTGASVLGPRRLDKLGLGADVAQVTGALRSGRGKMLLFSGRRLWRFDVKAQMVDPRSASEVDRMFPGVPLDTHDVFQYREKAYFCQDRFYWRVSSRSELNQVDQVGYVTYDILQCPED

In the case of `O=C(NO)C1(S(=O)(=O)c2ccc(OCCOCc3cccc([N+](=O)[O-])c3)cc2)CCOCC1` [Example 662], the IC50 (in general, the point on the concentration scale where inhibition reaches its midpoint) in data set [1] stood at 2310 nM; in data set [2], 7.13 nM; in data set [3] it was 44.3 nM; in data set [4], 0.9 nM; in data set [5], 1670 nM.

Consider `O=C(NO)C1(S(=O)(=O)c2ccc(OCCOCc3cccc(F)c3)cc2)CCOCC1` [Example 663], for which the IC50 in data set [1] is > 10000 nM; in data set [2], 25.2 nM; in data set [3], 49.9 nM; in data set [4] it was 3.61 nM; in data set [5], 3320 nM.

In the case of `O=C(NO)C1(S(=O)(=O)c2ccc(OCC3Cc4cc(Oc5ccccc5)ccc4O3)cc2)CCOCC1` (centres unmarked) [Example 664], the IC50 is > 10000 nM in data set [1]; 19.8 nM in data set [2]; 430 nM in data set [3]; 1.02 nM in data set [4]; 2650 nM in data set [5].

`O=C(NO)C1(S(=O)(=O)c2ccc(OCCOc3ccc4c(c3)OCO4)cc2)CCOCC1` [Example 665]: the IC50 in data set [1] is > 10000 nM; in data set [2], 11.6 nM; in data set [3], 44.3 nM; in data set [4], 2.39 nM; in data set [5], 2130 nM.

With `CN(C)C(=O)c1cccc(OCCOc2ccc(S(=O)(=O)C3(C(=O)NO)CCOCC3)cc2)c1` [Example 666], the IC50 was > 10000 nM in data set [1]; 1.52 nM in data set [2]; 4450 nM in data set [3]; 17.2 nM in data set [4]; > 10000 nM in data set [5].

As for `O=C(NO)C1(S(=O)(=O)c2ccc(OCCOc3ccccc3)cc2)CCOCC1` [Example 667], the IC50 in data set [1] is > 10000 nM; in data set [2], 27.3 nM; in data set [3], 34.2 nM; in data set [4], 9.42 nM; in data set [5], 2510 nM.

Regarding `COC(=O)c1cccc(OCCOc2ccc(S(=O)(=O)C3(C(=O)NO)CCOCC3)cc2)c1` [Example 668], the IC50 in data set [1] is 7660 nM; in data set [2], 101 nM; in data set [3], 288 nM; in data set [4], 1.53 nM; in data set [5] it was 2110 nM.

Take `O=C(NO)C1(S(=O)(=O)c2ccc(OCCOc3cccc(F)c3)cc2)CCOCC1` [Example 669]: the IC50 in data set [1] was > 10000 nM; in data set [2], 19.3 nM; in data set [3], 39.1 nM; in data set [4], 7.24 nM; in data set [5], 2670 nM.

In the case of `CC(=O)Nc1cccc(OCCOc2ccc(S(=O)(=O)C3(C(=O)NO)CCOCC3)cc2)c1` [Example 670], the IC50 is > 10000 nM in data set [1]; 163 nM in data set [2]; 183 nM in data set [3]; 14 nM in data set [4]; 2370 nM in data set [5].

Regarding `CNC(=O)[C@@H](NC(=O)[C@H](CC(C)C)[C@H](O)C(=O)NO)C(C)(C)C` [Marimastat], the “most common drug-related toxicity” value in data set [6] (clinical trials, patients) was “musculoskeletal pain and stiffness”. The “effect on cancer-specific antigens used as surrogate markers for biological activity” value in data set [6] (patients with advanced, rapidly progressive, treatment-refractory solid tumor cancers) was “dose-related reduction in the rise of cancer-specific antigens”.
